Assay results published in US20080318957A1, “POLYBASIC BACTERIAL EFFLUX PUMP INHIBITORS AND THERAPEUTIC USES THEREOF” (priority 2007, published 2008).

system: strain of P. aeruginosa, PAM1723, overexpressing the MexAB-OprM efflux pump; assay: checkerboard assay, levofloxacin potentiating activity (broth microdilution); format: cell-based; conditions: lowest inhibitor concentration giving antibacterial activity with levofloxacin at 1/32 of its MIC; MHB, 20 h, 35° C.
Protocol: All EPI compounds were readily soluble in water and stock solutions were prepared at a final concentration of 10 mg/ml. Stock solutions were further diluted, according to the needs of the particular assay, in Mueller Hinton Broth (MHB). Stock solution was stored at −80° C.
The checkerboard assay was performed in microtiter plates. […] EPIs were diluted in the y-axis, each row containing a single concentration of an EPI. The result of these manipulations was that each well of the microtiter plate contained a unique combination of concentrations of the two agents. The assay was performed in MHB with a final bacterial inoculum of 5 times 10^5 CFU/ml (from an early-log phase culture). Microtiter plates were incubated during 20 h at 35° C. and were read using a microtiterplate reader (Molecular Devices) at 650 nm as well as visual observation using a microtiter plate-reading mirror.

Row | SMILES | MPC32 (Minimum Potentiating Concentration)
1 | NCCN(CCN)C(=O)C[C@H](N)C(=O)N[C@@H](CCc1ccccc1)C(=O)Nc1cnc2ccccc2c1 [Compound 2] | 5 µg/mL
2 | CN(C(=O)[C@@H](N)CCC(=O)N(CCN)CCN)[C@@H](Cc1ccc(C(F)(F)F)cc1)C(=O)Nc1cnc2ccccc2c1 [Compound 5, 3-[(1S)-3-[bis(2-azaniumylethyl)carbamoyl]-1-{[(1S)-1-carbamoyl-2-[4-(trifluoromethyl)phenyl]ethyl](methyl)carbamoyl}propan-1-aminium]quinolin-1-ium tetrachloride] | >10 µg/mL
3 | NCCN(CCN)C(=O)CC[C@H](N)C(=O)N[C@H](Cc1ccc(C(F)(F)F)cc1)C(=O)Nc1cnc2ccccc2c1 [Compound 1, 3-[(1S)-3-[bis(2-azaniumylethyl)carbamoyl]-1-{[(1R)-1-carbamoyl-2-[4-(trifluoromethyl)phenyl]ethyl]carbamoyl}propan-1-aminium]quinolin-1-ium tetrachloride] | 0.6 µg/mL
4 | NCCN(CCN)C(=O)CC[C@H](N)C(=O)N/C(=C/c1ccc(C(F)(F)F)cc1)C(=O)Nc1cnc2ccccc2c1 [Compound 4, 3-[(1S)-3-[bis(2-azaniumylethyl)carbamoyl]-1-{[(1E)-1-carbamoyl-2-[4-(trifluoromethyl)phenyl]eth-1-en-1-yl]carbamoyl}propan-1-aminium]quinolin-1-ium tetrachloride] | 2.5 µg/mL
5 | NCCN(CCN)C(=O)CC[C@H](N)C(=O)N[C@H](C(=O)Nc1cnc2ccccc2c1)[C@H](O)c1ccc(C(F)(F)F)cc1 [Compound 3, 3-[(1S)-3-[bis(2-azaniumylethyl)carbamoyl]-1-{[(1S,2R)-1-carbamoyl-2-hydroxy-2-[4-(trifluoromethyl)phenyl]ethyl]carbamoyl]propan-1-aminium]quinolin-1-ium tetrachloride] | >10 µg/mL
